This passage reports IC50 results from ChEMBL document CHEMBL1128156, “Potent dual antagonists of endothelin and angiotensin II receptors derived from -phenoxyphenylacetic acids (Part III)” (Bioorg Med Chem Lett, 1995).

Usually IC50 stands for the concentration that gives 50% inhibition. A high value points to a need for much substance.

The target in one test is T1, Endothelin-1 receptor (Homo sapiens, UniProt P25101).
T1 sequence (P25101 whole entry): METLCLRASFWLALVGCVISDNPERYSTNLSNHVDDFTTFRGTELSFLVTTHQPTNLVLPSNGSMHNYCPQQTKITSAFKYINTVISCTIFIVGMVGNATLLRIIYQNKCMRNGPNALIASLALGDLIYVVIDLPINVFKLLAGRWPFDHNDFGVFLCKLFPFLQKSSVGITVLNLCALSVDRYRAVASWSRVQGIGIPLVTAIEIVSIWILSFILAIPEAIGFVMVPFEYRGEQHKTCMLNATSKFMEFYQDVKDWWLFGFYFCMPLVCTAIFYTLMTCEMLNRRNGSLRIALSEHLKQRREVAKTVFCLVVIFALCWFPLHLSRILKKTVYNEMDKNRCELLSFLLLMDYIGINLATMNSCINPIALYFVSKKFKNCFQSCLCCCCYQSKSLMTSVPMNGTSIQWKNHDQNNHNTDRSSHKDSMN
In words: Inhibition of human endothelin A (ETA) receptor expressed in CHO cells. It counts as cell-based.

The target of test [1] is T2, Endothelin receptor type B (Homo sapiens, UniProt P24530).
T2 sequence (P24530 whole entry): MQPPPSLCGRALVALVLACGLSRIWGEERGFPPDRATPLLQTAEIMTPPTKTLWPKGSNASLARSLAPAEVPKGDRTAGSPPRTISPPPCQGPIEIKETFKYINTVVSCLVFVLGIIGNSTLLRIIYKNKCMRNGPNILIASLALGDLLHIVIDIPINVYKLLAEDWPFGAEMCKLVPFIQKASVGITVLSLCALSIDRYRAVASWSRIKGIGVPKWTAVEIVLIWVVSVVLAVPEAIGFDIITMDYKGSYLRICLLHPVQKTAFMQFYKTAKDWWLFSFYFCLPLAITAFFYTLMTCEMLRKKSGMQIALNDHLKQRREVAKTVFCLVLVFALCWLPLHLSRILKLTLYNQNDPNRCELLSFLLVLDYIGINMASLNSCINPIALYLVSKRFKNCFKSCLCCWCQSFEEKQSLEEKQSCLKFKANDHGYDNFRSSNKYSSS
In words: Inhibition of human endothelin B (ETB) receptor expressed in CHO cells. It counts as cell-based.

Structures are written as SMILES.

Turning to `CCCc1cc(Cn2c(CC)nc3c(C)cc(C)nc32)cc(CCC)c1OC(C(=O)NS(=O)(=O)C(C)C)c1ccc2c(c1)OCO2` (centres undefined), the values for the IC50 (against Endothelin-1 receptor; in test [1]) were 700 nM and 1900 nM, respectively.

Take `CCCc1cc(Cn2c(CC)nc3c(C)cc(C)nc32)cc(CCC)c1OC(C(=O)NS(=O)(=O)c1ccc(CC(C)C)s1)c1ccc2c(c1)OCO2` (centres undefined): the IC50 against Endothelin-1 receptor turned out to be 600 nM; in test [1], 420 nM.

On to `CCCc1cc(Cn2c(CC)nc3c(C)cc(C)nc32)cc(CCC)c1OC(C(=O)NS(C)(=O)=O)c1ccc2c(c1)OCO2` (centres undefined), for which the figures for the IC50 (against Endothelin-1 receptor; in test [1]) were 500 nM and 1200 nM, respectively.

Take `CCCc1cc(Cn2c(CC)nc3c(C)cc(C)nc32)ccc1OC(C(=O)NS(=O)(=O)c1ccc(C(C)C)cc1)c1ccc2c(c1)OCO2` (centres undefined): the IC50 on Endothelin-1 receptor is 24 nM; in test [1] it was 60 nM.

Turning to `CCCc1cc(Cn2c(CC)nc3c(C)cc(C)nc32)ccc1OC(C(=O)NS(=O)(=O)c1ccc(CC(C)C)s1)c1ccc2c(c1)OCO2` (centres undefined), the IC50 on Endothelin-1 receptor was 75 nM; in test [1] it was 90 nM.

Turning to `CCCc1cc(Cn2c(CC)nc3c(C)cc(C)nc32)cc(CCC)c1OC(C(=O)O)c1cc(Br)c(OC)c(OC)c1Br` (centres undefined), the values for the IC50 (against Endothelin-1 receptor; in test [1]) were 11000 nM and 31000 nM, respectively.

Take `CCCc1cc(Cn2c(CC)nc3c(C)cc(C)nc32)cc(CCC)c1OC(C(=O)NS(=O)(=O)c1ccc(C(C)C)cc1)c1ccc2c(c1)OCO2` (centres undefined): the IC50 was 330 nM against Endothelin-1 receptor and 1300 nM in test [1].

Turning to `CCCc1cc(Cn2c(CC)nc3c(C)cc(C)nc32)cc(CCC)c1OC(C(=O)O)c1ccc2c(c1)OCO2` (centres undefined), the IC50 against Endothelin-1 receptor turned out to be 38 nM; in test [1], 230 nM.

`CCCc1cc(Cn2c(CC)nc3c(C)cc(C)nc32)cc(CCC)c1OC(C(=O)NS(=O)(=O)c1ccccc1)c1ccc2c(c1)OCO2` (centres undefined): the IC50 turned out to be 1600 nM at Endothelin-1 receptor and 800 nM in test [1].

For the molecule `CCCc1cc(Cn2c(CC)nc3c(C)cc(C)nc32)ccc1OC(C(=O)O)c1ccc2c(c1)OCO2` (centres undefined), the results for the IC50 (on Endothelin-1 receptor; in test [1]) were 840 nM and 1600 nM, respectively.

Turning to `CCCc1cc(Cn2c(CC)nc3c(C)cc(C)nc32)ccc1OC(C(=O)O)c1ccccc1` (centres undefined), the IC50 on Endothelin-1 receptor is 11000 nM; in test [1] it was 47000 nM.

Take `CCCc1cc(Cn2c(CC)nc3c(C)cc(C)nc32)cc(CCC)c1OC(C(=O)NS(=O)(=O)c1cccs1)c1ccc2c(c1)OCO2` (centres undefined): the IC50 against Endothelin-1 receptor was determined as 820 nM; in test [1], 540 nM.
